Earlier results as cited in patent US20260198548A1, “AEROSOL-GENERATING ARTICLE WITH AN AVERSIVE FLAVOURANT IN A REMOVABLE WRAPPER” (PHILIP MORRIS PRODUCTS S.A., priority 2022, published 2026).
Structures can show the parent of a compound that is named as a salt.

System: test panel members (bitter taste)
Settings: reciprocal of the dilution that still has a bitter taste; quinine hydrochloride reference set at 200,000

Question: Which Bitterness value does the source give for CC1=C[C@H]2[C@H]3[C@H](C(C)=C4[C@H]5OC(=O)[C@@H](C)[C@@H]5CC[C@](C)(O)[C@@H]43)[C@@]13[C@@H]2[C@@](C)(O)CC[C@H]1[C@H](C)C(=O)O[C@@H]13 [Absinthin, absinthin] here?
Answer: The Bitterness value was 3,000,000.

Question: Which Bitterness value does the source give for C[C@@]12C[C@@H](c3ccoc3)OC(=O)[C@@H]1CC[C@]1(C)[C@H]2[C@@H]2C=C[C@@]1(O)C(=O)O2 [Columbin, columbin] here?
Answer: The Bitterness value was 60,000,000.

Question: Which Bitterness value does the source give for COC1=C[C@@H](C)[C@@H]2C[C@H]3OC(=O)C[C@H]4C(C)=C(OC)C(=O)[C@H]([C@@]2(C)C1=O)[C@@]34C [Quassin, quassin] here?
Answer: Its Bitterness value is 13,000,000.

Question: Which Bitterness value does the source give for C=C[C@H]1C[N@@]2CC[C@H]1C[C@H]2[C@H](O)c1ccnc2ccc(OC)cc12 [Quinine hydrochloride, quinine hydrochloride] here?
Answer: The Bitterness value was 200,000.

Question: With amarogentin as the compound, how does the Bitterness value read?
Answer: The Bitterness value was 58,000,000.
